Results on six compounds are retold here after patent publication US9999620B2, “CaMKK-β as a target for treating cancer” (Duke University, priority 2010, dated 2018).

In one experiment the test system is CaMKKβ protein. Kind of experiment: Western blot of CaMKKβ protein in prostate cancer cells. The conditions noted are these: R1881 0.01, 0.1, 1, 10 nM, 24 h. It counts as cell-based, human. Here is the method:
(§1) FIG. 1. Androgens increase CaMKKβ levels in an AR-dependent manner. LNCaP or VCaP cells were treated for 24 h with vehicle or increasing concentrations of the synthetic androgen R1881 (A—0.1, 1, and 10 nM; B—0.01, 0.1, 1, and 10 nM). A, after treatment, cells were lysed, and RNA was isolated and reversed transcribed. The expression of CaMKKβ was assessed using qPCR. B, after treatment, cells were subjected to western blot analysis and subsequent densitometry (top). CaMKKβ protein levels were normalized to GAPDH loading control. A and B, results are expressed as fold induction over vehicle-treated cells+SE (n=3). *, significant changes from vehicle-treated cells. C, LNCaP cells were transiently transfected with mock or Stealth siRNAs targeting a negative control (siLacZ) or CaMKKβ (#1-3). Two days later, cells were treated for 24 h+/−10 nM R1881. Whole-cell extracts were subjected to western blot analysis and densitometry (top) as described in B. *, significant changes from mock-transfected cells. D, LNCaP cells were transfected as described in C with mock or Stealth siRNAs targeting LacZ or AR and treated for 24 h. The expression of CaMKKβ was assessed as in A using qPCR.
(§2) Western blot analysis. […] For each sample, protein levels were determined by densitometry using the ImageJ software (NIH) and normalizing to indicated controls.
(In general: Immunoblotting shows a protein as a band on a membrane.)

The test system of experiment [1] is AR binding region ~2.3 kb upstream of the CaMKKβ transcriptional start site. The experiment in a line: Chromatin immunoprecipitation of AR at the CaMKKβ upstream region. Format: cell-based, human. The conditions noted are these: LNCaP; 10 nM R1881 for 1 or 4 h. Here is the method:
(§3) FIG. 9. Identification of the ARE that regulates CaMKKβ expression. A, LNCaP cells were pretreated for 1 h with vehicle or 1 mg/mL cycloheximide followed by vehicle or 10 nM R1881 for 24 h. CaMKKβ or CXCR4 mRNA levels were quantified using qPCR. Results are expressed as fold induction over vehicle (no R1881)-treated cells±SE (n=3). *, significant changes from vehicle-treated cells. B, LNCaP cells were treated with vehicle (V) or 10 nM R1881 for 1 or 4 h. Cross-linked chromatin was immunoprecipitated with indicated antibodies. The precipitated DNA was amplified using primers spanning a region identified using ChIP on Chip data as a potential AR-binding site (indicated in top schematic) or a distal upstream region (negative control). The results are presented as percent input±SE (n=3). *, significant changes from IgG controls. C, various enhancer luciferase reporter constructs (depicted in top model) were transfected into LNCaP cells and treated overnight+/−10 nM R1881. After treatment, cells were harvested and assayed for luciferase activity. Luciferase values were normalized to β-galactosidase control. Data are the mean relative light units (RLUs)+SEM for one representative experiment performed in triplicate (n=3). *, significant changes from vehicle-treated cells. […]

The next experiment relates to CaMKKβ mRNA. The experiment in a line: qPCR of CaMKKβ mRNA in prostate cancer cells. It counts as cell-based, human. The conditions noted are these: for CaMKKβ mRNA levels: R1881 0.1, 1, 10 nM, 24 h. Here is the method:
as §1
FIG. 9. Identification of the ARE that regulates CaMKKβ expression. A, LNCaP cells were pretreated for 1 h with vehicle or 1 mg/mL cycloheximide followed by vehicle or 10 nM R1881 for 24 h. CaMKKβ or CXCR4 mRNA levels were quantified using qPCR. Results are expressed as fold induction over vehicle (no R1881)-treated cells±SE (n=3). *, significant changes from vehicle-treated cells. B, LNCaP cells were treated with vehicle (V) or 10 nM R1881 for 1 or 4 h. Cross-linked chromatin was immunoprecipitated with indicated antibodies. […]
(§4) RNA isolation, cDNA preparation, and quantitative and standard reverse transcription (RT)-PCR. RNA isolation, cDNA preparation and quantitative RT-PCR (qPCR) were performed as previously described using 36B4 as a control (12). […]
On the technique in general: Quantitative PCR measures a nucleic acid by following its amplification.

A further experiment has as its system LNCaP cells. Kind of experiment: Boyden dual chamber migration assay. Format: cell-based, human. Here is the method:
FIG. 7. CaMKKβ activity in the androgen-mediated migration and invasion of prostate cancer cells. A, LNCaP cells were plated in 96-well plates and grown for 3 d. […] On d 10, cells were lysed and the relative number of cells was measured with the fluorescent DNA binding dye FluoReporter Blue. Each sample was performed in triplicate, and results from a representative experiment are shown. […] Cells were then dissociated and reseeded into the top chamber for a Boyden migration or Matrigel extracellular matrix invasion assay. Fresh medium with the corresponding treatments was added to the top and bottom chambers while either no chemoattractant or 5% FBS (serum) was added to the bottom chamber. After 16 h, migrated cells were fixed, stained and counted in three different microscopic fields and added together. […] C top, LNCaP cells were transfected with indicated siRNAs. […] D right, LNCaP cells stably expressing either GAL4 (control) or CaMKKβ were subjected to a migration assay as described in B using +/-5% FBS as chemoattractant. The results are expressed as mean+SE (n=3). *, significant changes from LNCaP-GAL4 cells. D left, western blot confirming CaMKKβ […]expression. FIG. 11. Androgen-mediated migration occurs through a CaMKKβ-AMPK-dependent pathway. […] Results are expressed as fold induction/phosphorylation over double vehicle-treated cells+SE (n=3). *, significant changes from vehicle-treated cells. […] Results are expressed as fold induction/phosphorylation over LNCaP-GAL4 vehicle-treated cells+SE (n=3). *, significant changes from LNCaP-GAL4 vehicle-treated cells. […] The results are expressed as mean±SE (n=2). *, P<0.05 indicates significant changes from double vehicle-treated cells. ^#, P<0.05 indicates significant decreases from vehicle (no compound C)-treated cells. […] ACC is a direct target of AMPK and thus, was used as a readout of AMPK catalytic activity. […] Results are expressed as fold induction/phosphorylation over double vehicle-treated cells+SE (n=2). *, P<0.05 indicates significant changes from double vehicle-treated cells. […]

The test system of a further experiment is distant metastases. The conditions noted are these: prostate cancer patients, clinical trials; cited from earlier work.
In another experiment the test system is AMPK. Kind of experiment: Western blot of phospho-ACC (readout of AMPK catalytic activity). It counts as cell-based, human. The conditions noted are these: LNCaP; 1 h 1, 10 or 40 mM compound C, overnight +/-10 nM R1881. On the procedure: FIG. 13. AMPK and androgen-mediated prostate cancer cell migration. A, LNCaP cells were pretreated for 1 h with vehicle or increasing concentrations of compound C (10 or 40 mM) prior to overnight treatment+/−10 nM R1881 or 1 mM AICAR. Cells were then subjected to a migration assay as described in FIG. 7. The results are expressed as mean±SE (n=2). *, P<0.05 indicates significant changes from double vehicle-treated cells. ^#, P<0.05 indicates significant decreases from vehicle (no compound C)-treated cells. B, LNCaP cells were pretreated for 1 h with vehicle, 1, 10 or 40 mM compound C prior to overnight treatment+/−10 nM R1881. Cell lysates were then subjected to western blot analysis and subsequent densitometry (top). ACC is a direct target of AMPK and thus, was used as a readout of AMPK catalytic activity. Phospho-ACC (p-ACC) levels were normalized to total ACC. Results are expressed as fold induction/phosphorylation over double vehicle-treated cells+SE (n=2). *, P<0.05 indicates significant changes from double vehicle-treated cells. […]
as §2

The test system of the next experiment is CXCR4 mRNA. The experiment in a line: qPCR of CXCR4 mRNA in LNCaP cells. Format: cell-based, human. The conditions noted are these: 1 h 1 mg/mL cycloheximide, then 10 nM R1881 24 h. Here is the method: as §3, with “control.” for “control. Data are the mean relative light units (RLUs)+SEM for one representative experiment performed in triplicate (n=3). *, significant changes from vehicle-treated cells.”
as §4

Another experiment relates to circulating tumor cells. The conditions noted are these: patients having a castration-resistant type cancer; cited from earlier work.

`C[C@]1(O)CC[C@H]2[C@@H]3CCC4=CC(=O)CCC4=C3C=C[C@@]21C` [R1881, Methyltrienolone]: the CaMKKβ protein levels entry in the experiment with CaMKKβ protein (LNCaP) and with CaMKKβ protein (VCaP) was “dose-dependent increase” each time. Also, the “AR recruitment to the CaMKKβ upstream region” value in experiment [1] is listed as “recruited to this region of the promoter within one hour”. Further, the “CaMKKβ mRNA levels” value in the experiment on CaMKKβ mRNA (LNCaP) and in the experiment with CaMKKβ mRNA (VCaP) was “increased in a dose-dependent manner” each time.

Regarding `NC(=O)c1ncn([C@@H]2O[C@H](CO)[C@@H](O)[C@H]2O)c1N` [AICAR, 5-aminoimidazole-4-carboxamide 1-b-D-ribo-furanoside], the “cell migration, treatment alone” value with LNCaP cells (overnight 1 mM AICAR, no androgen) is “sufficient to increase cell migration”.

As to `CC(C)C[C@H](NC(=O)[C@@H](COC(C)(C)C)NC(=O)[C@H](Cc1ccc(O)cc1)NC(=O)[C@H](CO)NC(=O)[C@H](Cc1c[nH]c2ccccc12)NC(=O)[C@H](Cc1cnc[nH]1)NC(=O)[C@@H]1CCC(=O)N1)C(=O)N[C@@H](CCCNC(=N)N)C(=O)N1CCC[C@H]1C(=O)NNC(N)=O` [goserelin], in the experiment on distant metastases, the “incidences of distant metastases” value was “reduced incidences of distant metastases”.

As to `c1cc(-c2cnn3cc(-c4ccc(OCCN5CCCCC5)cc4)cnc23)ccn1` [compound C], the “AMPK kinase activity (phospho-ACC levels)” value in the experiment with AMPK is reported as “inhibited its kinase activity”. The androgen-mediated cell migration entry in the experiment on LNCaP cells (1 h pretreatment with compound C (10 or 40 mM), overnight 10 nM R1881) is recorded as “completely abolished androgen-mediated cell migration”.

For `C[C@@H]1C[C@@H]([C@H](O)CC2CC(=O)NC(=O)C2)C(=O)[C@@H](C)C1` [cycloheximide, Cycloheximide], the “expression of secondary androgen target genes (ex. CXCR4)” value in the experiment on CXCR4 mRNA is “inhibits the expression of secondary androgen target genes”. Further, the “R1881-mediated increase in CaMKKβ mRNA levels” value in the experiment on CaMKKβ mRNA (LNCaP, 1 h 1 mg/mL cycloheximide, then 10 nM R1881 24 h) was “did not block”.

In the case of `CNC(=O)c1ccc(N2C(=S)N(c3ccc(C#N)c(C(F)(F)F)c3)C(=O)C2(C)C)cc1F` [MDV3100], the “number of circulating tumor cells in patients” value in the experiment on circulating tumor cells was “decreases the number of circulating tumor cells in approximately half of the treated patients”.
